What all share (format): functional, cell-based
In test [1] the test system is HT-29. As to the kind of experiment: Tested for cytotoxicity against HT-29 (MDR)cells. Conditions: Homo sapiens.
In test [2] the test system is HT-29. As to the kind of experiment: Tested for cytotoxicity against HT-29 (wt)cells. Conditions: Homo sapiens.
Test [3] has as its system B16. The experiment in a line: Tested in vitro growth inhibition against B16 melanotic melanoma cells. To be noted: Mus musculus.

Experimental findings from ChEMBL document CHEMBL1145018, “Molecular basis of the antitumor activities of 2-crotonyloxymethyl-2-cycloalkenones” (J Med Chem, 2003) are described below.

As to `C/C=C/C(=O)OCC1=CCCCC1=O`, the IC50 (commonly the concentration needed to halve the response being measured) turned out to be 1800 nM in test [1], 800 nM in test [2] and 41 nM in test [3]. In turn, `C/C=C/C(=O)OCC1=CCCC1=O` showed an IC50 in test [3] of 144 nM.

Regarding `C/C=C/C(=O)OCC1=CCCCCC1=O`, the IC50 in test [3] is 29 nM. For the compound `CC[C@]1(O)C[C@H]2CN(CCc3c([nH]c4ccccc34)[C@@](C(=O)OC)(c3cc4c(cc3OC)N(C=O)[C@H]3[C@@](O)(C(=O)OC)[C@H](OC(C)=O)[C@]5(CC)C=CCN6CC[C@]43[C@@H]65)C2)C1` [VINCRISTINE], the IC50 in test [1] was found to be 17 nM; in test [2] it was 1 nM.
